Reference: patent US20220403337A1, “CELL REPROGRAMMING METHOD” (priority 2019, published 2022)

Columns and labels:
Type in all cases: cell-based
[1] = system: Normal human skin fibroblasts (adult); test: Reprogramming of human skin fibroblasts: change in form, spheroid formation, alkaline phosphatase stain
Protocol: (§1) Normal human skin fibroblasts (adult) (Takara Bio) were seeded to a spheroid plate, and after 24 to 48 hours, medium exchange was performed on a D-MEM (Low Glucose) medium to which 2-mercaptoethanol diluted by 1/100000 (142 μM) was added. Then, after three to four days, medium exchange was performed again on the same D-MEM medium.
Then, after three or four days, the medium exchange was performed again on the same medium.
The alkaline phosphatase reaction of the cells finally obtained by the above-described culture was examined. The stain of alkaline phosphatase was performed in accordance with the operating manual attached to the kit using Alkaline Phosphatase Live Stain (Invitrogen). Specifically, the cells were cultured for 30 minutes in a medium in which a staining fluid (AP Live Stain) attached to the kit diluted by 500 times was added in the D-MEM. Afterwards, the medium was exchanged and cleaning was performed for five minutes x two times.
(§2) The processes similar to those of the above-described items 1 and 2 were performed to examine the concentration of 2-mercaptoethanol. Specifically, except that the concentration of 2-mercaptoethanol was set to 0.142 μM, 1.42 μM, 14.2 μM, 142 μM, 1.42 mM, 14.2 mM, and 142 mM, the operations same as those in the items 1 and 2 were performed.
Similarly to the item 1, after performing the culture in the D-MEM medium containing the 2-mercaptoethanol (142 μM), LIF (wako, used by 1:1000), ACTH (wako, 10 μmol/L), bFGF (wako, 0.34 nmol/L), and AR-A014418 (Merck, 3 μM) were added in this medium and further the cells were cultured for one week. As a result, both of spheroid formation of the cells and the alkaline phosphatase stain were observed.
In the item 1, when (i) only the LIF, (ii) only the ACTH, or (iii) only the LIF and the ACTH were added to the ADSC-4 medium for culture, spheroid formation of the cells and the alkaline phosphatase stain were observed under any conditions.

[2] = system: normal human skin fibroblast (adult); test: Effect by CCL2 added to LIF on reprogramming (cell form)
Protocol: The CCL2 was added to the LIF and an influence given to reprogramming was verified. In accordance with Working Example 1, while medium exchange was performed on a normal human skin fibroblast (adult) (the Takara Bio) in a D-MEM medium containing 2-mercaptoethanol (142 μM) for three to four days, culture was performed for seven days. Next, culture was performed for additional seven days in a medium in which (i) only LIF, (ii) LIF+CCL2 (10 ng/mL), or (iii) LIF+CCL2 (100 ng/mL) were added to an ADSC-4 medium. Note that the LIF was used by 1:1000.

[3] = system: Normal human skin fibroblasts (adult); test: Extinction of cells at high 2-mercaptoethanol concentration; conditions: D-MEM medium
Protocol: as §1, §2

[4] = system: Nanog, Klf4, Oct4, and Sox2; test: PCR for expression of undifferentiated markers; conditions: human skin fibroblasts processed with 2-mercaptoethanol and reprogrammed (FIG. 4 lane 3)
Protocol: Whether gene expression had been generated was examined on Nanog, Klf4, Oct4, and Sox2 as the undifferentiated markers. The RNA was collected from the cells using a RNeasy Mini Kit (QIAGEN). PCR was performed on the above-described various kinds of undifferentiated markers using the method described in Cell. 2007 Nov 30; 131(5): 861-72.

[5] = after 2-mercaptoethanol (142 μM) step, only the named factor(s) added to ADSC-4 medium
[6] = culture only in D-MEM containing 2-mercaptoethanol (142 μM), no step (b)

For “LIF: leukemia inhibiting factor, OCT3/4 transcription stimulating factor (wako, used by 1:1000)”, the “alkaline phosphatase stain (strength)” value [1, 5] was “especially observed strongly”, the “spheroid formation of the cells and alkaline phosphatase stain” value [1, 5] was “observed” and the “change in form of the cells” value ([2]; (i) only LIF 1:1000 in ADSC-4, seven days, after 2-mercaptoethanol (142 μM) seven days) was “confirmed”.

In the case of “CCL2: chemokine (C-C motif) ligand 2, OCT3/4 transcription stimulating factor”, the “cell aggregation on addition of CCL2 to LIF” value ([2]; contours between cells clarified, divergence of cell adhesion recognized (FIG. 13D)) is reported as “remarkable”.

In the case of `OCCS` [2-mercaptoethanol], the “2-mercaptoethanol concentration at which extinction of the cells was observed” value [3] is reported as at least 14.2 mM, the “expression of undifferentiated markers Nanog, Klf4, Oct4, and Sox2 (PCR bands around targeted sizes)” value [4] is reported as “bands were able to be confirmed” and the “change in form of the cells” value ([1]; 142 μM in D-MEM (Low Glucose), cultured for one week) is reported as “the change in form of the cells was confirmed”. For the same molecule, the “spheroid formation of the cells and alkaline phosphatase stain” value ([1]; 142 μM in D-MEM, then LIF, ACTH, bFGF, AR-A014418 added in this same medium, one further week) was “observed”, the spheroid formation ([1]; 142 μM one week, then one week in ADSC-4 with LIF 1:1000, ACTH 10 μmol/L, bFGF 0.34 nmol/L, AR-A014418 3 μM) was “forming spheroids” and the “alkaline phosphatase stain (AP Live Stain, fluorescence microscope)” value ([1]; 142 μM one week, then one week in ADSC-4 with LIF, ACTH, bFGF, AR-A014418) was “the stain was observed”. For the same molecule, the “spheroid formation of the cells and alkaline phosphatase stain” value ([1]; 2-mercaptoethanol at 0.142 μM to 1.42 mM in step (a), then ADSC-4 with LIF, ACTH, bFGF, AR-A014418) was “observed”, the alkaline phosphatase stain ([1]; 2-mercaptoethanol at 14.2 μM to 1.42 mM in step (a), then ADSC-4 with LIF, ACTH, bFGF, AR-A014418) was “especially strongly observed” and the alkaline phosphatase stain [1, 6] was “weak”. For the same molecule, the “spheroid formation of the cells” value [1, 6] was “observed”.

For “ACTH: adrenocorticotropic hormone (wako, 10 μmol/L) (SYSMEHFRWGKPVGKKRRPVKVYPNGAEDESAEAFPLEF; Corticotropin; UniProt P01189 138-176, looked up)”, the “spheroid formation of the cells and alkaline phosphatase stain” value [1, 5] was “observed”.
